Legend:
Type in all cases: biochemical
CDK7/cyclin H = CDK7/cyclin H (Homo sapiens, UniProt P50613); assay: CDK 7 assay (CTD peptide substrate); details: read-out: Kinase Inhibition pIC50 CDK7-cyclin H (converted)
Experimental: (§1) Kinase assays. The compounds of the invention above were investigated for their ability to inhibit the enzymatic activity of various protein kinases (Table 2). This was achieved by measurement of incorporation of radioactive phosphate from ATP into appropriate polypeptide substrates. Recombinant protein kinases and kinase complexes were produced or obtained commercially. Assays were performed using 96-well plates and appropriate assay buffers (typically 25 mM β-glycerophosphate, 20 mM MOPS, 5 mM EGTA, 1 mM DTT, 1 mM […], pH 7.4), into which were added 2-4 μg of active enzyme with appropriate substrates. The reactions were initiated by addition of Mg/ATP mix (15 mM MgCl2+100 μM ATP with 30-50 kBq per well of [γ-^32P]-ATP) and mixtures incubated as required at 30° C. Reactions were stopped on ice, followed by filtration through p81 filterplates or GF/C filterplates (Whatman Polyfiltronics, Kent, UK). After washing 3 times with 75 mM aq orthophosphoric acid, plates were dried, scintillant added and incorporated radioactivity measured in a scintillation counter (TopCount, Packard Instruments, Pangbourne, Berks, UK). Compounds for kinase assay were made up as 10 mM stocks in DMSO and diluted into 10% DMSO in assay buffer.
(§2) CDK 7 and 9 assays. CTD peptide substrate (biotinyl-Abx-(Tyr-Ser-Pro-Thr-Ser-Pro-Ser)4-NH2; 1-2 mg/mL) and recombinant human CDK7/cyclin H, CDK9/cyclin T1, or CDK9/cyclin K (0.5-2 μg) were incubated for 45 min at 30° C. in the presence of varying amounts of test compound in 20 mM MOPS pH 7.2, 25 mM β-glycerophosphate, 5 mM EGTA, 1 mM DTT, 1 mM sodium vanadate, 15 mM MgCl2, and 100 μM ATP (containing a trace amount of ^32PγATP) in a total volume of 25 μL in a 96-well microtiter plate. The reaction was stopped by placing the plate on ice for 2 min. Avidin (50 μg) was added to each well, and the plate was incubated at room temp for 30 min. The samples were transferred to a 96-well P81 filter plate, and washed (4×200 μL per well) with 75 mM phosphoric acid. Microscint 40 scintillation liquid (50 μL) was added to each well, and the amount of ^32P incorporation for each sample was measured using a Packard Topcount microplate scintillation counter.

[1] = target: T1, Flt3 (FMS-like tyrosine kinase-3) (Homo sapiens, UniProt P36888); assay: Kinase assay (radioactive phosphate incorporation), Flt3; details: pIC50 is -log(IC50, M), read-out: Kinase Inhibition pIC50 Flt3 (converted)
T1 sequence (P36888 27-993): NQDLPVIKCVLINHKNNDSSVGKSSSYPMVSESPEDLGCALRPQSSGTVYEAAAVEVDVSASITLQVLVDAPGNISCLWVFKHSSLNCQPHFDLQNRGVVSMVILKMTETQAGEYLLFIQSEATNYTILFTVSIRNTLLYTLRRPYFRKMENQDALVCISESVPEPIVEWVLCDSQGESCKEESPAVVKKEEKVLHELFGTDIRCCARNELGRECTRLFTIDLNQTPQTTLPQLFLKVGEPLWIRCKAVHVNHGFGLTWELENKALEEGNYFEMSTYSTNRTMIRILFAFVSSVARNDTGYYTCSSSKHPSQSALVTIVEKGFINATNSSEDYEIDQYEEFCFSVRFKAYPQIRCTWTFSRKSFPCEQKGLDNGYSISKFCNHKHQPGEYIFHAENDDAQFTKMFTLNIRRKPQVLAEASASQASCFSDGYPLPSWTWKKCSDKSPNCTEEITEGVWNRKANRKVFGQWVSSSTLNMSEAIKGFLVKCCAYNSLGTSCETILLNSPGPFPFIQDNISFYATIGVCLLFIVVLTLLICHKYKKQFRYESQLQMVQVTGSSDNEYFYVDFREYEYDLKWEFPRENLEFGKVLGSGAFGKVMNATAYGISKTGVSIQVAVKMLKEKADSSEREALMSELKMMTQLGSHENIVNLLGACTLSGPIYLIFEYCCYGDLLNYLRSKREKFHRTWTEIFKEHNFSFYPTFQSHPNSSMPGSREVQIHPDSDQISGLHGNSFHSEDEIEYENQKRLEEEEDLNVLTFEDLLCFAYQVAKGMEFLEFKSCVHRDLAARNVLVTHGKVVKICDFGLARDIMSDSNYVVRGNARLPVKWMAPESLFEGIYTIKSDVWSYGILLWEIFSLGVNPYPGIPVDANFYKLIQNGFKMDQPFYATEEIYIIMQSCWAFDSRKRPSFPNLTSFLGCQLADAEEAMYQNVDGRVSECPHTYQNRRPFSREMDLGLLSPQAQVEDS
Experimental: as §1

CDK2-cycline E = CDK2-cycline E (Homo sapiens, UniProt P24941); assay: Kinase assay (radioactive phosphate incorporation), CDK2-cyclin E; details: read-out: Kinase Inhibition pIC50 CDK2-cycline E (converted)
Experimental: as §1

Aurora A kinase = target: T2, Aurora A kinase (Homo sapiens, UniProt O14965); assay: Aurora-A (human) kinase assay (Kemptide substrate); details: pIC50 is -log(IC50, M); 15 μM ATP; read-out: Kinase Inhibition pIC50 Aurora A kinase (converted)
T2 construct: purchased
T2 sequence (O14965 1-403): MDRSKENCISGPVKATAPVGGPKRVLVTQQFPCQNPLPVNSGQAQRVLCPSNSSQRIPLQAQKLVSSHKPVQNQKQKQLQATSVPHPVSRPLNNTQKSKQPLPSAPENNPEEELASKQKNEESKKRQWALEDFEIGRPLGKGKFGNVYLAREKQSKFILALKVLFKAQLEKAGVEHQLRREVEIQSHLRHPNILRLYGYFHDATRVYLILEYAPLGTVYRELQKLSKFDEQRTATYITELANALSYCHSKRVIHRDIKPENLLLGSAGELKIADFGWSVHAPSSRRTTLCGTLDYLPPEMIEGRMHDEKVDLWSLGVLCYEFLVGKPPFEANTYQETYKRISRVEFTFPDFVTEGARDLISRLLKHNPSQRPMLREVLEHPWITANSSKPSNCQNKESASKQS
Experimental: Aurora-A (human) kinase assay. This was achieved by measurement of incorporation of radioactive phosphate from ATP into Kemptide substrate (LRRASLG), upon phosphorylation by commercially obtained aurora-A kinase. Assays were performed using 96-well plates and appropriate assay buffers (8 mM MOPS, 0.2 mM EDTA, pH 7.0), into which were added 5-10 ng of active enzyme with 200 μM substrate (Kemptide). The reactions were initiated by addition of Mg/ATP mix (10 mM MgAcetate+15 μM ATP with 30-50 kBq per well of [γ-^33P]-ATP) and mixtures incubated for 40 min at room temperature. Reactions were stopped by addition of 3% phosphoric acid, followed by filtration through p81 filterplates (Whatman Polyfiltronics, Kent, UK). After washing 5 times with 75 mM aq orthophosphoric acid and once in methanol, plates were dried, scintillant added and incorporated radioactivity measured in a scintillation counter (TopCount, Packard Instruments, Pangbourne, Berks, UK). Compounds for kinase assay were made up as 10 mM stocks in DMSO and diluted into 10% DMSO in assay buffer.

CDK9/cyclin T1 = CDK9/cyclin T1 (Homo sapiens, UniProt P50750); assay: CDK 9 assay (CTD peptide substrate); details: read-out: Kinase Inhibition pIC50 CDK9-cyclin T1 (converted)
CDK9/cyclin T1, sequence (P50750 whole entry): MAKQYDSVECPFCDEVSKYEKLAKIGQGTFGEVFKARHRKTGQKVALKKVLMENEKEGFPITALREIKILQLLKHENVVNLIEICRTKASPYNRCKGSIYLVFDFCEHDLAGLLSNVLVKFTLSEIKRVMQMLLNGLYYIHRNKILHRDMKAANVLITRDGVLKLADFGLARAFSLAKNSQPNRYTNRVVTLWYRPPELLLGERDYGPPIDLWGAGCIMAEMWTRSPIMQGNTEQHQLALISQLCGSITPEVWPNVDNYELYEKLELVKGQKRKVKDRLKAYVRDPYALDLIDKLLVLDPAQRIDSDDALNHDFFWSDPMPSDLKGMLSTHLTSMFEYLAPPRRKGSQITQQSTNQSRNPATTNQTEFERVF
CDK9/cyclin T1, sequence (O60563 whole entry partner): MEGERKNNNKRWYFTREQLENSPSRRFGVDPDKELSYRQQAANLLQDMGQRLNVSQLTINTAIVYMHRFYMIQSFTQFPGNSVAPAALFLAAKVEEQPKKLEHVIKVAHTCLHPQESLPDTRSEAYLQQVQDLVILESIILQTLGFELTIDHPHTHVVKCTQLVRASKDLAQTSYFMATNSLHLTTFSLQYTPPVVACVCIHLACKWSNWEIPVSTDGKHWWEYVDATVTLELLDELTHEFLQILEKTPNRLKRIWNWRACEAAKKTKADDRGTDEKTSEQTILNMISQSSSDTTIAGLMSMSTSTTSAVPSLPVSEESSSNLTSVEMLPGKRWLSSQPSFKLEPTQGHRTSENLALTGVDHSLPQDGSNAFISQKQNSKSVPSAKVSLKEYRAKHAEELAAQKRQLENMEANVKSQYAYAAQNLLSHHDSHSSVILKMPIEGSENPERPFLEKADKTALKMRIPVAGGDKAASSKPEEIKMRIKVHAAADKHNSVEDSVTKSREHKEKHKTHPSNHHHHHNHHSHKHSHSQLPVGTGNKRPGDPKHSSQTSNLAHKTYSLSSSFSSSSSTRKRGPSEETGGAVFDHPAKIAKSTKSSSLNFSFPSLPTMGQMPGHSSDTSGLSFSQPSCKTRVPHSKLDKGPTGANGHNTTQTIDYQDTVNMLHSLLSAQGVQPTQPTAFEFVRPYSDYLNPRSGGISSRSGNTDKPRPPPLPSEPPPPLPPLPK
Experimental: as §1, §2

CDK7/cyclin H, sequence (P50613 whole entry): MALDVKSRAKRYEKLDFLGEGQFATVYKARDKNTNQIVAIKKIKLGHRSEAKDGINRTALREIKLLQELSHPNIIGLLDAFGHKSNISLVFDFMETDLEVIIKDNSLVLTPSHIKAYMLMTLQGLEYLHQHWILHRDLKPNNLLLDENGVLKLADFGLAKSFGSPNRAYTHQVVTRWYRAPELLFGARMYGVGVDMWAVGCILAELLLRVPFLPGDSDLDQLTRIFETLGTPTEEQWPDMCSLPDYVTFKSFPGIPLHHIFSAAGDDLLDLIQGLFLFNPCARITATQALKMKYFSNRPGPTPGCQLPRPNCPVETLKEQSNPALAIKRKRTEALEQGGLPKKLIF
CDK7/cyclin H, sequence (P51946 whole entry partner): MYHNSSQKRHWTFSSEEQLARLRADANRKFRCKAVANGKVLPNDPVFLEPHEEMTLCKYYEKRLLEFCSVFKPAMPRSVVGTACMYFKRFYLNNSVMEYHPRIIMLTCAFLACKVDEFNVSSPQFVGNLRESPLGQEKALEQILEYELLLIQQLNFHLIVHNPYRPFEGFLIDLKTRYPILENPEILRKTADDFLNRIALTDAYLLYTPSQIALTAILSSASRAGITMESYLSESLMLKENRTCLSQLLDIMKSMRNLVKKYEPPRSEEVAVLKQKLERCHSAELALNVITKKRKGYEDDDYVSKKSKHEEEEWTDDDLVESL

| IC50 (CDK7/cyclin H) [nM] | IC50 [1] [nM] | IC50 (CDK2-cycline E) [nM] | IC50 (Aurora A kinase) [nM] | IC50 (CDK9/cyclin T1) [nM] | Structure (SMILES) |
| --- | --- | --- | --- | --- | --- |
| 3160 | 126 | 1000 | – | – | COCCOC(=O)Cc1cccc(Nc2nccc(-c3sc(N)nc3C)n2)c1 [Compound 1, {3-[4-(2-Amino-4-methyl-thiazol-5-yl)-pyrimidin-2-ylamino]-phenyl}-acetic acid 2-methoxy-ethyl ester] |
| 3160 | 63.1 | – | 20 | 2000 | COc1cc(Nc2nccc(-c3sc(C)nc3C)n2)cc(OC)c1OC [Compound 25, [4-(2,4-Dimethyl-thiazol-5-yl)-pyrimidin-2-yl]-(3,4,5-trimethoxy-phenyl)-amine] |
| – | 200 | – | – | – | Cc1nc(C)c(-c2ccnc(Nc3cc(CO)cc(CO)c3)n2)s1 [Compound 47, {3-[4-(2,4-Dimethyl-thiazol-5-yl)-pyrimidin-2-ylamino]-5-hydroxymethyl-phenyl}-methanol] |
| – | 398 | 5010 | 39.8 | 3980 | Cc1nc(C)c(-c2ccnc(Nc3ccc(N4CC(C)OC(C)C4)cc3)n2)s1 (stereo not drawn) [Compound 121, [4-(2,6-Dimethyl-morpholin-4-yl)-phenyl]-[4-(2,4-dimethyl-thiazol-5-yl)-pyrimidin-2-yl]-amine] |
| – | 126 | 1260 | 158 | – | Cc1nc(C)c(-c2ccnc(Nc3cccc(CN4CCOCC4)c3)n2)s1 [Compound 150, [4-(2,4-Dimethyl-thiazol-5-yl)-pyrimidin-2-yl]-(3-morpholin-4-ylmethyl-phenyl)-amine] |
| – | 63.1 | 200 | 63.1 | – | Cc1nc(C)c(-c2ccnc(Nc3ccc(O)c(CN4CCOCC4)c3)n2)s1 [Compound 151, 4-[4-(2,4-Dimethyl-thiazol-5-yl)-pyrimidin-2-ylamino]-2-morpholin-4-ylmethyl-phenol] |
| – | 31.6 | 316 | 50.1 | – | Cc1nc(C)c(-c2ccnc(Nc3cccc(N4CCOCC4)c3)n2)s1 [Compound 152, [4-(2,4-Dimethyl-thiazol-5-yl)-pyrimidin-2-yl]-(3-morpholin-4-yl-phenyl)-amine] |
| – | 100 | – | 79.4 | – | COc1cc(Nc2nccc(-c3sc(-c4cccnc4)nc3C)n2)cc(OC)c1OC [Compound 154, [4-(4-Methyl-2-pyridin-3-yl-thiazol-5-yl)-pyrimidin-2-yl]-(3,4,5-trimethoxy-phenyl)-amine] |
| – | 100 | – | 100 | – | COc1cc(Nc2nccc(-c3sc(-c4cccnc4)nc3C)n2)ccc1N1CCOCC1 [Compound 156, (3-Methoxy-4-morpholin-4-yl-phenyl)-[4-(4-methyl-2-pyridin-3-yl-thiazol-5-yl)-pyrimidin-2-yl]-amine] |
| – | 63.1 | 3160 | 126 | 3160 | Cc1nc(N(C)c2cccnc2)sc1-c1ccnc(Nc2ccc(N3CCOCC3)cc2)n1 [Compound 162, {4-[4-Methyl-2-(methyl-pyridin-3-yl-amino)-thiazol-5-yl]-pyrimidin-2-yl}-(4-morpholin-4-yl-phenyl)-amine] |
| 1260 | 5.01 | 398 | 31.6 | 316 | COc1cc(Nc2nccc(-c3sc(N)nc3C)n2)cc(OC)c1OC [Compound 168, [4-(2-Amino-4-methyl-thiazol-5-yl)-pyrimidin-2-yl]-(3,4,5-trimethoxy-phenyl)-amine] |
| – | 39.8 | 1580 | 50.1 | 3160 | CCNc1nc(C)c(-c2ccnc(Nc3ccc(N4CC(C)OC(C)C4)cc3)n2)s1 (stereo not drawn) [Compound 169, [4-(2,6-Dimethyl-morpholin-4-yl)-phenyl]-[4-(2-ethylamino-4-methyl-thiazol-5-yl)-pyrimidin-2-yl]-amine] |
| – | 10 | 316 | 63.1 | – | CNc1nc(C)c(-c2ccnc(Nc3cc(OC)cc(OC)c3)n2)s1 [Compound 170, (3,5-Dimethoxy-phenyl)-[4-(4-methyl-2-methylamino-thiazol-5-yl)-pyrimidin-2-yl]-amine] |
| 251 | 158 | 1260 | 100 | 1000 | Cc1nc(C)c(-c2ccnc(Nc3ccc(CN4CCOCC4)cc3)n2)s1 [Compound 174, [4-(2,4-Dimethyl-thiazol-5-yl)-pyrimidin-2-yl]-(4-morpholin-4-ylmethyl-phenyl)-amine] |
| 1580 | – | 1580 | 63.1 | 631 | COc1cc(Nc2nccc(-c3sc(CO)nc3C)n2)ccc1N1CCCCC1 [Compound 216, {5-[2-(3-Methoxy-4-piperidin-1-yl-phenylamino)-pyrimidin-4-yl]-4-methyl-thiazol-2-yl}-methanol] |
| 7940 | – | 1260 | 50.1 | 3980 | Cc1cc(Nc2nccc(-c3sc(CO)nc3C)n2)ccc1N1CCOCC1 [Compound 217, {4-Methyl-5-[2-(3-methyl-4-morpholin-4-yl-phenylamino)-pyrimidin-4-yl]-thiazol-2-yl}-methanol] |

From US20090137572A1, “2-substituted-4-heteroaryl-pyrimidines useful for the treatment of proliferative disorders” (priority 2004, published 2009)
